ChEMBL document CHEMBL1149901, “Complex sesquiterpenoids with tyrosinase inhibitory activity from the leaves of Chloranthus tianmushanensis” (J Nat Prod, 2008)
Calls of active or inactive are those of the source. The rule behind the calls is not given here.

Biological target: T1, Tyrosinase (Agaricus bisporus, UniProt O42713)
T1 sequence (O42713 whole entry): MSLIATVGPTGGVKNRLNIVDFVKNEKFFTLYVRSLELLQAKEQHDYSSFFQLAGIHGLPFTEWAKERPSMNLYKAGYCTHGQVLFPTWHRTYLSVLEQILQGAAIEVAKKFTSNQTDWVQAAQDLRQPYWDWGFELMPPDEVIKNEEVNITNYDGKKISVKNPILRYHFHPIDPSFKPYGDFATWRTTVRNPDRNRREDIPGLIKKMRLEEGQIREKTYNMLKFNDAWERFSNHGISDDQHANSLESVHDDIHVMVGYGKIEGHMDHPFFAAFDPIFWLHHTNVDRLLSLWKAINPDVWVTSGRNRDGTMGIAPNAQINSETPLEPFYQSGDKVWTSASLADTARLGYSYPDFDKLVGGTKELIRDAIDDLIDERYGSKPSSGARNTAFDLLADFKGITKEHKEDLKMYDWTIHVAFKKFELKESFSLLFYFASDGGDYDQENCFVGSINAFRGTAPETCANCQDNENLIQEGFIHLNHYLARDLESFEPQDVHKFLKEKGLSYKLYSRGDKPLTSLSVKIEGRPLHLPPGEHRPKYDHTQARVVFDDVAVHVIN
Description: Inhibition of Mushroom tyrosinase

Structure (SMILES)	IC50
CO[C@@]12OC(=O)C(C)=C1C1=C3[C@](C)([C@@H]4C[C@@H]4[C@@]3(O)C[C@@H]3[C@]14OC(=O)C1=C4C[C@H]4[C@](O)(COC(=O)/C(C)=C/COC(=O)CCC(=O)OC1)[C@H]1C[C@H]1[C@]34C)[C@H]2O	312 µM
CC1=C2C3=C4[C@](C)([C@@H]5C[C@@H]5[C@@]4(O)C[C@@H]4[C@]35OC(=O)C3=C5C[C@H]5[C@](O)(COC(=O)/C(C)=C/COC(=O)CCC(=O)OC3)[C@H]3C[C@H]3[C@]45C)[C@@H](O)[C@]2(O)OC1=O [TIANMUSHANOL]	358 µM

Biological target: T2, Tyrosinase (Agaricus bisporus) (UniProt O42713)
T2 sequence (whole entry): T1 sequence (O42713 whole entry)
Description: Inhibition of Mushroom tyrosinase

Activity	Structure (SMILES)
inactive	CC1=C2C/C=C(\C)CC/C=C(\C)C[C@@H]2OC1=O
inactive	C=C1CCC[C@]2(C)C[C@]3(O)OC(=O)C(C)=C3C[C@@H]12
inactive	C=C1[C@H]2C[C@H]2[C@]2(C)C=C3OC(=O)C(C)=C3C[C@@H]12
inactive	C/C1=C\Cc2c(C)coc2C/C(C)=C/CC1
